The target of test [1] is Plasmepsin-2 (PM-2; Plm II) (Plasmodium falciparum (isolate HB3), UniProt P46925). Briefly: Plasmepsin-2 enzyme inhibition assay. The test is classed as biochemical. The gist of the method: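 Enzymes activated in pH 4.5 citrate/DTT buffer, then assayed in 50 mM sodium acetate pH 4.7, 0.01% Tween-20. Compounds added before fluorogenic peptide substrate (final 20 µM); 60 min at room temperature, fluorescence Ex/Em 360/535 nm, IC50 by curve fit.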

Test [2] has as its target Plasmepsin (PM-4; Plm IV) (Plasmodium falciparum (isolate 3D7), UniProt Q8IM16). Briefly: Plasmepsin-4 enzyme inhibition assay. The test is classed as biochemical. The note with it: Table 8. Here is the method: Plasmepsin-2 (PM-2; Plm II) and Plasmepsin (PM-4; Plm IV) expression and purification was performed following the published protocols (Istvan E S and Goldberg D E, 2005). The final purified protein was activated by diluting the protein to 0.3 mg/mL in activating buffer (0.1 M citrate pH 4.5, 0.1% Tween-20, 50 mM dithiothreitol) and incubated at room temperature for 40 min, then the activated enzyme was diluted in assay buffer (50 mM sodium acetate pH 4.7, 0.01% Tween-20). The enzymatic inhibition reaction was performed in 384 well plates with a total volume of 20 μl. 10 μl of diluted PM-2 or PM-4 enzyme was added to the 384-well plate except blank wells (blank wells add 10 μL of assay buffer) and 20 nL of serials of diluted 1000× compounds were added to the wells with 520 Echo® Liquid Handling System (Labcyte Inc.). 10 μL PM-2 peptide substrate (AnaSpec, Cat#, 62050) with assay buffer was then added to final concentration of 20 μM to start the reaction. After incubation the reaction at room temperature for 60 min, the fluorescence intensity at Ex/Em=360 nm/535 nm was measured using EnVision multilabel plate reader (Perkin-Elmer). The IC50 values were obtained using Graph Pad Prism 4 and are reported in Tables 8 and 9 below as PM-2 IC50 values.

The test system of test [3] is Plasmodium falciparum 3D7 (CQ-sensitive). The experiment in a line: In vitro antimalarial assay (malaria SYBR Green I-based fluorescence, MSF), 3D7. The test is classed as cell-based. In short, it runs like this: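 Asynchronous P. falciparum 3D7 cultures (0.5% parasitemia, 2% hematocrit) were exposed to serially diluted compounds, in quadruplicate. Growth was then quantified by SYBR Green I fluorescence after adding lysis buffer containing 0.2 μL/mL dye.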

Test [4] has as its target recombinant human BACE1 (Homo sapiens, UniProt P56817). Briefly: β-Secretase (BACE1) enzyme inhibition FRET assay. The test is classed as biochemical. The note with it: Table 13; read-out: BACE1 IC50. Here is the method: The enzymatic inhibition activity assays were determined using the fluorescence resonance energy transfer (FRET) assay. The assays were performed in a 384-well plate format. […] CatD and CatE were activated by incubation in assay buffer (0.1 M NaOAc, 0.2 M NaCl, pH 3.5) at room temperature for 30 min. Subsequently, the rhBACE-1 substrate (R&D Systems, catalog# ES004), the Cathepsin D and Cathepsin E substrate (R&D Systems, Catalog # ES001) were added accordingly to final concentration 20 μM to initiate the reaction. After 60 min incubation at room temperature, the time-resolved fluorescence at Ex/Em=360 nm/460 nm was measured on an EnVision multilabel plate reader (Perkin-Elmer). The analytical software, GraphPad Prism 5.0 (GraphPad Software, Inc., USA) was used to generate IC50 values via non-linear regression analysis, which are reported in Tables 8-13 below as BACE1 IC50 values.

The mark [5] stands for this setting: 3D7, Table 8, read-out: Pf 3D7 IC50.
Setting [6] is: 3D7, Table 10, read-out: Pf3D7 IC50.
Where [7] appears, read: 3D7, Table 13, read-out: 3D7 IC50.
Where [8] appears, read: 3D7, read-out: 3D7 IC50 (μM), Table 13.

Like-named read-outs stand apart in the source and are kept apart here.

Sequence of recombinant human BACE1 (P56817 46-501 limits assumed): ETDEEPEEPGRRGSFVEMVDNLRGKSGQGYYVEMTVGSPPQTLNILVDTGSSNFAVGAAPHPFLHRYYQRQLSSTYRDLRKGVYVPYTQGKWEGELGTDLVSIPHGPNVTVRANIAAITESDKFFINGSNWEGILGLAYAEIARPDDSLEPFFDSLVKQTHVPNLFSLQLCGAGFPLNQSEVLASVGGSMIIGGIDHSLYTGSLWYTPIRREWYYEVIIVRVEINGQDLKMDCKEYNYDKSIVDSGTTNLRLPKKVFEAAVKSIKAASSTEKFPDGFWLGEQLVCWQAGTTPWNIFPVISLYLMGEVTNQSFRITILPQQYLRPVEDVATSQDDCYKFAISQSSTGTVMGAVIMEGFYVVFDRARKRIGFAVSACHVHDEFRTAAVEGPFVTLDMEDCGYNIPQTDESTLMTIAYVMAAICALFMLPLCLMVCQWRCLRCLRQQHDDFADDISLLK
Sequence of Plasmepsin (PM-4; Plm IV) (Q8IM16 122-449 limits assumed): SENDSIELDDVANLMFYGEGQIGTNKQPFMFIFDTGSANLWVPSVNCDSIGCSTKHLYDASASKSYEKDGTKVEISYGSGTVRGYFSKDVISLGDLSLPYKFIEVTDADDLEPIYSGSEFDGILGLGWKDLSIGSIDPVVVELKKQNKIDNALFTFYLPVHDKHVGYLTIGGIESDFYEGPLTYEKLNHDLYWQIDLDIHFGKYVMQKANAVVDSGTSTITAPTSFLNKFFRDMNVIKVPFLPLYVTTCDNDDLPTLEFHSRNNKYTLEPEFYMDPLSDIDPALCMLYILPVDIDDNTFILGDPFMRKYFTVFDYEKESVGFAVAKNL
Sequence of Plasmepsin-2 (PM-2; Plm II) (P46925 125-453 limits assumed): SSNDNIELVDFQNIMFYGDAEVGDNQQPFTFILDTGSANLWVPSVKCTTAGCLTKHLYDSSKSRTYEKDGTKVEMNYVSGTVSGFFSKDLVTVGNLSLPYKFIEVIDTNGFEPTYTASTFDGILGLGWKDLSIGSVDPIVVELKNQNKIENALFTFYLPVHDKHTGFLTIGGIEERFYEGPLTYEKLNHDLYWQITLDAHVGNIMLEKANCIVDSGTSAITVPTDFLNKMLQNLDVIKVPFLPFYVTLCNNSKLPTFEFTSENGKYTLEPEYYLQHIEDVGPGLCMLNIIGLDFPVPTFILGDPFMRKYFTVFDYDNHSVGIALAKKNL

Consider `COc1ccc(C2(c3ccc(OC)cc3)NC(=O)N(C3CCCCC3)C2=O)cc1`, for which the IC50 (in general, the midpoint of a concentration-inhibition curve) in test [1] (Table 8, read-out: PM-II IC50) was above 10000 nM; in test [2] it was above 10000 nM; in test [3] (setting [5]), above 10 µM.

For `COc1ccc(C2(c3ccc(OC)cc3)NC(=N)N(C3CCN(C)CC3)C2=O)cc1` [Example 166, 2-imino-5,5-bis(4-methoxyphenyl)-3-(1-methylpiperidin-4-yl)imidazolidin-4-one], the IC50 in test [1] (Table 8, read-out: PM-II IC50) was determined as 35 nM; in test [1] (Table 13, read-out: PM-2 IC50) it was 34.7 nM; in test [2], 109 nM; in test [3] (setting [5]) it was 0.697 µM; in test [3] (setting [6]) it was 0.697 µM; in test [3] (setting [7]), 0.697 µM.

On to `COc1ccc(C2(c3ccc(OC)cc3)NC(=N)N(C3CCNCC3)C2=O)cc1` [Example 207, 2-imino-5,5-bis(4-methoxyphenyl)-3-(piperidin-4-yl)-imidazolidin-4-one], for which the IC50 is 505 nM in test [1] (Table 8, read-out: PM-II IC50); 505 nM in test [1] (Table 13, read-out: PM-2 IC50); 192 nM in test [2]; above 5 µM in test [3] (setting [5]); above 5 µM in test [3] (setting [6]); above 5 µM in test [3] (setting [7]).

Take `N=C1NC(c2cccc(-c3cncc(Cl)c3)c2)(C2CC2)C(=O)N1C1CCOCC1` (stereo not drawn) [Example 489, 5-(3-(5-chloropyridin-3-yl)phenyl)-5-cyclopropyl-2-imino-3-(tetrahydro-2H-pyran-4-yl)imidazolidin-4-one]: the IC50 in test [4] came out at 1160 nM; in test [1] (Table 13, read-out: PM-2 IC50), 211 nM; in test [3] (setting [8]) it was 0.268 µM.

In the case of `COc1ccc(C2(C3CC3)NC(=N)N(C3CCOCC3)C2=O)cc1-c1cccc(C#N)c1` (stereo not drawn) [Example 491, 5′-(4-cyclopropyl-2-imino-5-oxo-1-(tetrahydro-2H-pyran-4-yl)imidazolidin-4-yl)-2′-methoxy-[1,1′-biphenyl]-3-carbonitrile], the IC50 in test [4] is 8320 nM; in test [1] (Table 13, read-out: PM-2 IC50), 51.7 nM; in test [3] (setting [8]), 0.47 µM.

As for `N#Cc1cncc(-c2cccc(C3(C4CC4)NC(=N)N(C4CCCCC4)C3=O)c2)c1` (stereo not drawn) [Example 513, 5-(3-(1-cyclohexyl-4-cyclopropyl-2-imino-5-oxoimidazolidin-4-yl)phenyl)nicotinonitrile], the IC50 in test [4] is 6640 nM; in test [1] (Table 13, read-out: PM-2 IC50), 219 nM; in test [3] (setting [8]) it was 0.4 µM.

In the case of `N=C1NC(c2cccc(-c3cccnc3)c2)(C2CCCCC2)C(=O)N1C1CCOCC1` (stereo not drawn) [Example 517, 5-cyclohexyl-2-imino-5-(3-(pyridin-3-yl)phenyl)-3-(tetrahydro-2H-pyran-4-yl)imidazolidin-4-one], the IC50 in test [4] was found to be 14700 nM; in test [1] (Table 13, read-out: PM-2 IC50), 125 nM; in test [3] (setting [8]), 0.35 µM.
